Experimental data as given in patent publication US8796245B2 (TetraPhase Pharmaceuticals, Inc., priority 2008, dated 2014).
Values after ≈ are worked out from the molar mass of the structure shown.

Legend:
Format in all cases: cell-based
[1] = test system: P. aeruginosa ATCC 27853 (PA111); assay: Minimum inhibitory concentration assay, PA111; settings: Pseudomonas aeruginosa, ATCC27853; P. aeruginosa ATCC 27853, wt; read-out: MICs PA111
Protocol: (§1) Frozen bacterial strains were thawed and subcultured onto Mueller Hinton Broth (MHB) or other appropriate media (Streptococcus requires blood and Haemophilus requires hemin and NAD). Following incubation overnight, the strains were subcultured onto Mueller Hinton Agar and again incubated overnight. […] Isolated colonies were selected to prepare a starting inoculum equivalent to a 0.5 McFarland standard. The starting inoculum was diluted 1:125 using MHB for further use. Test compounds were prepared by dilution in sterile water to a final concentration of 5.128 mg/mL. Antibiotics (stored frozen, thawed and used within 3 hours of thawing) and compounds were further diluted to the desired working concentrations.
(§2) The assays were run as follows. Fifty μL of MHB was added to wells 2-12 of a 96-well plate. One hundred […] of appropriately diluted antibiotics was added to well 1. Fifty μL of antibiotics was removed from well 1 and added to well 2 and the contents of well 2 mixed by pipetting up and down five times. Fifty μL of the mixture in well 2 was removed and added to well 3 and mixed as above. Serial dilutions were continued in the same manner through well 12. Fifty μL was removed from well 12 so that all contained 50 μL. Fifty μL of the working inoculum was then added to all test wells. A growth control well was prepared by adding 50 μL of working inoculum and 50 μL of MHB to an empty well. The plates were then incubated at 37° C. overnight, removed from the incubator and each well was read on a plate reading mirror. The lowest concentration (MIC) of test compound that inhibited the growth of the bacteria was recorded.

[2] = test system: E. faecalis EF159 (tet resistant: tetM); assay: Minimum inhibitory concentration assay, EF159; settings: Enterococcus faecalis, read-out: MICs EF159
Protocol: as §1, §2

[3] = test system: S. pneumoniae SP160 (tet resistant: tet M); assay: Minimum inhibitory concentration assay, SP160; settings: Streptococcus pneumoniae, read-out: MICs SP160
Protocol: as §1, §2

[4] = test system: E. coli ATCC 25922 (EC107); assay: Minimum inhibitory concentration assay, EC107; settings: Escherichia coli, ATCC25922; E. coli ATCC 25922, wt; read-out: MICs EC107
Protocol: as §1, §2

[5] = test system: A. baumanii ATCC 19606 (AB110); assay: Minimum inhibitory concentration assay, AB110; settings: Acinetobacter baumannii, ATCC19606; A. baumanii ATCC 19606, wt; read-out: MICs AB110
Protocol: as §1, §2

[6] = test system: S. aureus ATCC 29213 (SA101, MSSA); assay: Minimum inhibitory concentration assay, SA101; settings: Staphylococcus aureus; S. aureus ATCC 29213, MSSA control; read-out: MICs SA101
Protocol: as §1, §2

[7] = test system: S. aureus ATCC 13709 (SA100, MSSA, Smith strain); assay: Minimum inhibitory concentration assay, SA100; settings: Staphylococcus aureus; S. aureus ATCC 13709, MSSA Smith strain; read-out: MICs SA100
Protocol: as §1, §2

[8] = test system: K. pneumoniae KP153 (tet resistant: tetA efflux); assay: microbe, parasite or virus in culture; settings: Klebsiella pneumoniae, read-out: MICs KP153
Protocol: as §1, §2

[9] = test system: S. aureus SA158 (tet resistant: tetK efflux); assay: microbe, parasite or virus in culture; settings: Staphylococcus aureus, read-out: MICs SA158
Protocol: as §1, §2

[10] = test system: E. coli EC155 (tet resistant: tetA efflux); assay: microbe, parasite or virus in culture; settings: Escherichia coli; E. coli tet resistant: tetA (efflux); read-out: MICs EC155
Protocol: as §1, §2

[11] = test system: S. pneumoniae ATCC 49619 (SP106); assay: Minimum inhibitory concentration assay, SP106; settings: Streptococcus pneumoniae, ATCC49619; S. pneumoniae ATCC 49619, wt; read-out: MICs SP106
Protocol: as §1, §2

[12] = test system: S. aureus SA161 (tet resistant: tet(M) ribosomal protection); assay: Minimum inhibitory concentration assay, SA161; settings: Staphylococcus aureus, read-out: MICs SA161
Protocol: as §1, §2

[13] = test system: E. cloacae ATCC 13047 (EC108); assay: Minimum inhibitory concentration assay, EC108; settings: Enterobacter cloacae, ATCC13047; E. cloacae ATCC 13047, wt; read-out: MICs EC108
Protocol: as §1, §2

[14] = test system: K. pneumoniae ATCC 13883 (KP109); assay: Minimum inhibitory concentration assay, KP109; settings: Klebsiella pneumoniae, ATCC13883; K. pneumoniae ATCC 13883, wt; read-out: MICs KP109
Protocol: as §1, §2

[15] = test system: E. faecalis ATCC 29212 (EF103); assay: Minimum inhibitory concentration assay, EF103; settings: Enterococcus faecalis, ATCC29212, read-out: MICs EF103
Protocol: as §1, §2

| Compound | MIC [1] [µg/mL] | MIC [2] [µg/mL] | MIC [3] [µg/mL] | MIC [4] [µg/mL] | MIC [5] [µg/mL] | MIC [6] [µg/mL] | MIC [7] [µg/mL] | MIC [8] [µg/mL] | MIC [9] [µg/mL] | MIC [10] [µg/mL] | MIC [11] [µg/mL] | MIC [12] [µg/mL] | MIC [13] [µg/mL] | MIC [14] [µg/mL] | MIC [15] [µg/mL] |
| --- | --- | --- | --- | --- | --- | --- | --- | --- | --- | --- | --- | --- | --- | --- | --- |
| CCCCCNCC(=O)Nc1cc(F)c2c(c1O)C(=O)C1=C(O)[C@]3(O)C(=O)C(C(N)=O)=C(O)[C@@H](N(C)C)[C@@H]3C[C@@H]1C2 [Compound 26] | 16 (≈ 27.8 µM) | 0.5 (≈ 0.87 µM) | ≤ 0.0156 | 0.5 (≈ 0.87 µM) | 0.25 (≈ 0.435 µM) | 1 (≈ 1.74 µM) | 1 (≈ 1.74 µM) | 4 (≈ 6.96 µM) | 1 (≈ 1.74 µM) | 4 (≈ 6.96 µM) | ≤ 0.0156 | 1 (≈ 1.74 µM) | 2 (≈ 3.48 µM) | 2 (≈ 3.48 µM) | 0.25 (≈ 0.435 µM) |
| CN(C)[C@@H]1C(O)=C(C(N)=O)C(=O)[C@@]2(O)C(O)=C3C(=O)c4c(O)c(NC(=O)CNC(C)(C)C)cc(F)c4C[C@H]3C[C@@H]12 [Compound 11] | 16 (≈ 28.5 µM) | 0.125 (≈ 0.223 µM) | ≤ 0.0156 | 0.25 (≈ 0.446 µM) | 0.5 (≈ 0.892 µM) | 0.125 (≈ 0.223 µM) | 0.25 (≈ 0.446 µM) | 2 (≈ 3.57 µM) | 0.0625 (≈ 0.111 µM) | 2 (≈ 3.57 µM) | ≤ 0.0156 | 0.25 (≈ 0.446 µM) | 1 (≈ 1.78 µM) | 1 (≈ 1.78 µM) | 0.0625 (≈ 0.111 µM) |
| CCCCCCCNCC(=O)Nc1cc(F)c2c(c1O)C(=O)C1=C(O)[C@]3(O)C(=O)C(C(N)=O)=C(O)[C@@H](N(C)C)[C@@H]3C[C@@H]1C2 [Compound 29] | > 32 | 2 (≈ 3.32 µM) | 1 (≈ 1.66 µM) | 8 (≈ 13.3 µM) | 8 (≈ 13.3 µM) | 4 (≈ 6.64 µM) | 4 (≈ 6.64 µM) | 8 (≈ 13.3 µM) | 2 (≈ 3.32 µM) | 8 (≈ 13.3 µM) | 1 (≈ 1.66 µM) | 4 (≈ 6.64 µM) | 8 (≈ 13.3 µM) | 8 (≈ 13.3 µM) | 2 (≈ 3.32 µM) |
| CN(C)[C@@H]1C(O)=C(C(N)=O)C(=O)[C@@]2(O)C(O)=C3C(=O)c4c(O)c(NC(=O)CN5Cc6ccccc6C5)cc(F)c4C[C@H]3C[C@@H]12 [Compound 46] | > 32 | 0.5 (≈ 0.824 µM) | 0.125 (≈ 0.206 µM) | 2 (≈ 3.3 µM) | 0.125 (≈ 0.206 µM) | 0.25 (≈ 0.412 µM) | 0.25 (≈ 0.412 µM) | 32 (≈ 52.8 µM) | 0.25 (≈ 0.412 µM) | 4 (≈ 6.59 µM) | 0.125 (≈ 0.206 µM) | 0.5 (≈ 0.824 µM) | 32 (≈ 52.8 µM) | 4 (≈ 6.59 µM) | 0.25 (≈ 0.412 µM) |
| CN(C)[C@@H]1C(O)=C(C(N)=O)C(=O)[C@@]2(O)C(O)=C3C(=O)c4c(O)c(NC(=O)CC5CC(F)C5)cc(F)c4C[C@H]3C[C@@H]12 (stereo partly drawn) [Compound 33] | > 32 | 1 (≈ 1.78 µM) | 0.125 (≈ 0.223 µM) | 2 (≈ 3.56 µM) | 4 (≈ 7.12 µM) | 0.25 (≈ 0.445 µM) | 0.5 (≈ 0.89 µM) | > 32 | 2 (≈ 3.56 µM) | > 32 | ≤ 0.0156 | 1 (≈ 1.78 µM) | 16 (≈ 28.5 µM) | 4 (≈ 7.12 µM) | 0.25 (≈ 0.445 µM) |
| CCCCNCC(=O)Nc1cc(F)c2c(c1O)C(=O)C1=C(O)[C@]3(O)C(=O)C(C(N)=O)=C(O)[C@@H](N(C)C)[C@@H]3C[C@@H]1C2 [Compound 13] | 16 (≈ 28.5 µM) | 0.0625 (≈ 0.111 µM) | ≤ 0.0156 | 0.125 (≈ 0.223 µM) | 0.25 (≈ 0.446 µM) | ≤ 0.0156 | ≤ 0.0156 | 2 (≈ 3.57 µM) | 0.25 (≈ 0.446 µM) | 4 (≈ 7.14 µM) | ≤ 0.0156 | 0.0625 (≈ 0.111 µM) | 1 (≈ 1.78 µM) | 0.5 (≈ 0.892 µM) | ≤ 0.0156 |
| CN(C)[C@@H]1C(O)=C(C(N)=O)C(=O)[C@@]2(O)C(O)=C3C(=O)c4c(O)c(NC(=O)CNCC(F)(F)F)cc(F)c4C[C@H]3C[C@@H]12 [Compound 22] | > 32 | 4 (≈ 6.82 µM) | 1 (≈ 1.71 µM) | 16 (≈ 27.3 µM) | 2 (≈ 3.41 µM) | 1 (≈ 1.71 µM) | 1 (≈ 1.71 µM) | > 32 | 4 (≈ 6.82 µM) | > 32 | 0.5 (≈ 0.853 µM) | 2 (≈ 3.41 µM) | > 32 | 32 (≈ 54.6 µM) | 2 (≈ 3.41 µM) |
